This passage reports inhibition results from ChEMBL document CHEMBL6103552, “Identification of peptide-based hepatitis B virus capsid inhibitors based on the viral core protein” (Bioorg Med Chem Lett, 2025).

SMILES strings stand for the structures. Active and inactive are the calls of the source. No rule for the calls is given here. Residues, ends and D or L forms follow the SMILES beside them.

Core antigen (Hepatitis B virus), sequence (Q03732 as listed by the source): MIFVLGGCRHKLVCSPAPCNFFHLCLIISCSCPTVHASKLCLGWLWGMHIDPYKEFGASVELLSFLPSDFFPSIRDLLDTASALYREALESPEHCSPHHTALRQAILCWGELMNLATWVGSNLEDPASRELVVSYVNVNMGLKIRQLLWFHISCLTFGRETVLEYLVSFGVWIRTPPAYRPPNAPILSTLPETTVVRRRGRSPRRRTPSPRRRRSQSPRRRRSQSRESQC

The experiment addresses Core antigen (Hepatitis B virus) (UniProt Q03732). The experiment can be described thus: Inhibition of Hepatitis B virus capsid formation at 100 uM treated during cell-free wild type HBV Cp synthesis using wheat germ lysates and HBV Cp RNA by Native capsid assay based western blot analysis. The class given is subcellular.
For the compound `CC(=O)N[C@@H](C)C(=O)N[C@@H](CC(C)C)C(=O)N[C@@H](CCC(=O)O)C(=O)N[C@@H](CO)C(=O)N1CCC[C@H]1C(=O)N[C@@H](CCC(=O)O)C(=O)N[C@@H](Cc1c[nH]cn1)C(=O)N[C@@H](CS)C(=O)N[C@@H](CO)C(=O)N1CCC[C@H]1C(=O)N[C@@H](Cc1c[nH]cn1)C(=O)N[C@@H](Cc1c[nH]cn1)C(=O)N[C@H](C(=O)N[C@@H](C)C(=O)N[C@@H](CC(C)C)C(N)=O)[C@@H](C)O` (Ac-ALESPEHCSPHHTAL-NH2), the inhibition result is “inactive”. `CC(=O)N[C@@H](C)C(=O)N[C@@H](CC(C)C)C(=O)N[C@@H](Cc1ccc(O)cc1)C(=O)N[C@@H](CCCNC(=N)N)C(=O)N[C@@H](CCC(=O)O)C(=O)N[C@@H](C)C(=O)N[C@@H](CC(C)C)C(=O)N[C@@H](CCC(=O)O)C(=O)N[C@@H](CO)C(=O)N1CCC[C@H]1C(=O)N[C@@H](CCC(=O)O)C(=O)N[C@@H](Cc1c[nH]cn1)C(=O)N[C@@H](CS)C(=O)N[C@@H](CO)C(=O)N1CCC[C@H]1C(N)=O` (Ac-ALYREALESPEHCSP-NH2): the inhibition result is “inactive”. For the compound `CC[C@H](C)[C@H](NC(=O)[C@@H]1CCCN1C(=O)[C@H](C)NC(=O)[C@H](CC(N)=O)NC(=O)[C@@H]1CCCN1C(=O)[C@@H]1CCCN1C(=O)[C@H](CCCNC(=N)N)NC(=O)[C@H](Cc1ccc(O)cc1)NC(=O)[C@H](C)NC(C)=O)C(=O)N[C@@H](CC(C)C)C(=O)N[C@@H](CO)C(=O)N[C@H](C(=O)N[C@@H](CC(C)C)C(=O)N1CCC[C@H]1C(=O)N[C@@H](CCC(=O)O)C(N)=O)[C@@H](C)O` (Ac-AYRPPNAPILSTLPE-NH2), the inhibition result is “inactive”.

As to `CC[C@H](C)[C@H](NC(=O)[C@H](C)NC(=O)[C@H](CCC(N)=O)NC(=O)[C@@H]1CCCN1C(=O)[C@H](CC(C)C)NC(=O)[C@H](C)NC(=O)[C@@H](NC(=O)[C@H](Cc1c[nH]cn1)NC(=O)[C@H](Cc1c[nH]cn1)NC(=O)[C@@H]1CCCN1C(=O)[C@H](CO)NC(=O)[C@H](CS)NC(=O)[C@H](Cc1c[nH]cn1)NC(=O)[C@H](CCC(=O)O)NC(C)=O)[C@@H](C)O)C(=O)N[C@@H](CC(C)C)C(N)=O` (Ac-EHCSPHHTALPQAIL-NH2), the inhibition result was “inactive”. As for `CC(=O)NCC(=O)N[C@@H](CCCNC(=N)N)C(=O)N[C@@H](CCC(=O)O)C(=O)N[C@H](C(=O)N[C@H](C(=O)N[C@@H](CC(C)C)C(=O)N[C@@H](CCC(=O)O)C(=O)N[C@@H](Cc1ccc(O)cc1)C(=O)N[C@@H](CC(C)C)C(=O)N[C@H](C(=O)N[C@@H](CO)C(=O)N[C@@H](Cc1ccccc1)C(=O)NCC(=O)N[C@H](C(=O)N[C@@H](Cc1c[nH]c2ccccc12)C(N)=O)C(C)C)C(C)C)C(C)C)[C@@H](C)O` (Ac-GRETVLEYLVSFGVW-NH2), the inhibition result was “inactive”. Under `CC[C@H](C)[C@H](NC(=O)[C@H](C)NC(=O)[C@H](CCC(N)=O)NC(=O)[C@@H]1CCCN1C(=O)[C@H](CC(C)C)NC(=O)[C@H](C)NC(=O)[C@@H](NC(=O)[C@H](Cc1c[nH]cn1)NC(=O)[C@H](Cc1c[nH]cn1)NC(C)=O)[C@@H](C)O)C(=O)N[C@@H](CC(C)C)C(=O)N[C@@H](CS)C(=O)N[C@@H](Cc1c[nH]c2ccccc12)C(=O)NCC(=O)N[C@@H](CCC(=O)O)C(=O)N[C@@H](CC(C)C)C(N)=O` (Ac-HHTALPQAILCWGEL-NH2) stands “inactive”; under `CC[C@H](C)[C@H](NC(C)=O)C(=O)N[C@@H](CCCNC(=N)N)C(=O)N[C@H](C(=O)N1CCC[C@H]1C(=O)N1CCC[C@H]1C(=O)N[C@@H](C)C(=O)N[C@@H](Cc1ccc(O)cc1)C(=O)N[C@@H](CCCNC(=N)N)C(=O)N1CCC[C@H]1C(=O)N1CCC[C@H]1C(=O)N[C@@H](CC(N)=O)C(=O)N[C@@H](C)C(=O)N1CCC[C@H]1C(=O)N[C@H](C(=O)N[C@@H](CC(C)C)C(N)=O)[C@@H](C)CC)[C@@H](C)O` (Ac-IRTPPAYRPPNAPIL-NH2), “inactive”; under `CC(=O)N[C@@H](CC(C)C)C(=O)N[C@@H](CC(=O)O)C(=O)N[C@H](C(=O)N[C@@H](C)C(=O)N[C@@H](CO)C(=O)N[C@@H](C)C(=O)N[C@@H](CC(C)C)C(=O)N[C@@H](Cc1ccc(O)cc1)C(=O)N[C@@H](CCCNC(=N)N)C(=O)N[C@@H](CCC(=O)O)C(=O)N[C@@H](C)C(=O)N[C@@H](CC(C)C)C(=O)N[C@@H](CCC(=O)O)C(=O)N[C@@H](CO)C(=O)N1CCC[C@H]1C(N)=O)[C@@H](C)O` (Ac-LDTASALYREALESP-NH2), “inactive”. On to `CC[C@H](C)[C@H](NC(=O)[C@H](Cc1c[nH]c2ccccc12)NC(=O)[C@@H](NC(=O)CNC(=O)[C@H](Cc1ccccc1)NC(=O)[C@H](CO)NC(=O)[C@@H](NC(=O)[C@H](CC(C)C)NC(=O)[C@H](Cc1ccc(O)cc1)NC(=O)[C@H](CCC(=O)O)NC(=O)[C@H](CC(C)C)NC(C)=O)C(C)C)C(C)C)C(=O)N[C@@H](CCCNC(=N)N)C(=O)N[C@H](C(=O)N1CCC[C@H]1C(=O)N1CCC[C@H]1C(N)=O)[C@@H](C)O` (Ac-LEYLVSFGVWIRTPP-NH2), for which the inhibition result was “inactive”. For the compound `CC[C@H](C)[C@H](NC(=O)[C@H](Cc1c[nH]cn1)NC(=O)[C@H](Cc1ccccc1)NC(=O)[C@H](Cc1c[nH]c2ccccc12)NC(=O)[C@H](CC(C)C)NC(C)=O)C(=O)N[C@@H](CO)C(=O)N[C@@H](CS)C(=O)N[C@@H](CC(C)C)C(=O)N[C@H](C(=O)N[C@@H](Cc1ccccc1)C(=O)NCC(=O)N[C@@H](CCCNC(=N)N)C(=O)N[C@@H](CCC(=O)O)C(=O)N[C@H](C(=O)N[C@H](C(N)=O)C(C)C)[C@@H](C)O)[C@@H](C)O` (Ac-LWFHISCLTFGRETV-NH2), the inhibition entry was “inactive”. As to `CC(=O)N1CCC[C@H]1C(=O)N[C@@H](CCCNC(=N)N)C(=O)N[C@@H](CCCNC(=N)N)C(=O)N[C@@H](CCCNC(=N)N)C(=O)N[C@@H](CCCNC(=N)N)C(=O)N[C@@H](CO)C(=O)N[C@@H](CCC(N)=O)C(=O)N[C@@H](CO)C(=O)N[C@@H](CCCNC(=N)N)C(=O)N[C@@H](CCC(=O)O)C(=O)N[C@@H](CO)C(=O)N[C@@H](CCC(N)=O)C(=O)N[C@@H](CS)C(N)=O` (Ac-PRRRRSQSRESQC-NH2), the inhibition entry is “inactive”. On to `CC(=O)N1CCC[C@H]1C(=O)N[C@@H](CCCNC(=N)N)C(=O)N[C@@H](CCCNC(=N)N)C(=O)N[C@@H](CCCNC(=N)N)C(=O)N[C@H](C(=O)N1CCC[C@H]1C(=O)N[C@@H](CO)C(=O)N1CCC[C@H]1C(=O)N[C@@H](CCCNC(=N)N)C(=O)N[C@@H](CCCNC(=N)N)C(=O)N[C@@H](CCCNC(=N)N)C(=O)N[C@@H](CCCNC(=N)N)C(=O)N[C@@H](CO)C(=O)N[C@@H](CCC(N)=O)C(=O)N[C@@H](CO)C(N)=O)[C@@H](C)O` (Ac-PRRRTPSPRRRRSQS-NH2), for which the inhibition result is “inactive”. Under `CC(=O)N1CCC[C@H]1C(=O)N[C@@H](CO)C(=O)N1CCC[C@H]1C(=O)N[C@@H](CCCNC(=N)N)C(=O)N[C@@H](CCCNC(=N)N)C(=O)N[C@@H](CCCNC(=N)N)C(=O)N[C@@H](CCCNC(=N)N)C(=O)N[C@@H](CO)C(=O)N[C@@H](CCC(N)=O)C(=O)N[C@@H](CO)C(=O)N1CCC[C@H]1C(=O)N[C@@H](CCCNC(=N)N)C(=O)N[C@@H](CCCNC(=N)N)C(=O)N[C@@H](CCCNC(=N)N)C(=O)N[C@@H](CCCNC(=N)N)C(N)=O` (Ac-PSPRRRRSQSPRRRR-NH2) stands “inactive”; under `CC(=O)N[C@@H](CCC(N)=O)C(=O)N[C@@H](CO)C(=O)N1CCC[C@H]1C(=O)N[C@@H](CCCNC(=N)N)C(=O)N[C@@H](CCCNC(=N)N)C(=O)N[C@@H](CCCNC(=N)N)C(=O)N[C@@H](CCCNC(=N)N)C(=O)N[C@@H](CO)C(=O)N[C@@H](CCC(N)=O)C(=O)N[C@@H](CO)C(=O)N[C@@H](CCCNC(=N)N)C(=O)N[C@@H](CCC(=O)O)C(=O)N[C@@H](CO)C(=O)N[C@@H](CCC(N)=O)C(=O)N[C@@H](CS)C(N)=O` (Ac-QSPRRRRSQSRESQC-NH2), “inactive”; under `CC(=O)N[C@@H](CCCNC(=N)N)C(=O)N[C@@H](CCCNC(=N)N)C(=O)NCC(=O)N[C@@H](CCCNC(=N)N)C(=O)N[C@@H](CO)C(=O)N1CCC[C@H]1C(=O)N[C@@H](CCCNC(=N)N)C(=O)N[C@@H](CCCNC(=N)N)C(=O)N[C@@H](CCCNC(=N)N)C(=O)N[C@H](C(=O)N1CCC[C@H]1C(=O)N[C@@H](CO)C(=O)N1CCC[C@H]1C(=O)N[C@@H](CCCNC(=N)N)C(=O)N[C@@H](CCCNC(=N)N)C(N)=O)[C@@H](C)O` (Ac-RRGRSPRRRTPSPRR-NH2), “inactive”. For the compound `CC(=O)N[C@@H](CCCNC(=N)N)C(=O)N[C@@H](CCCNC(=N)N)C(=O)N[C@@H](CO)C(=O)N[C@@H](CCC(N)=O)C(=O)N[C@@H](CO)C(=O)N1CCC[C@H]1C(=O)N[C@@H](CCCNC(=N)N)C(=O)N[C@@H](CCCNC(=N)N)C(=O)N[C@@H](CCCNC(=N)N)C(=O)N[C@@H](CCCNC(=N)N)C(=O)N[C@@H](CO)C(=O)N[C@@H](CCC(N)=O)C(=O)N[C@@H](CO)C(=O)N[C@@H](CCCNC(=N)N)C(=O)N[C@@H](CCC(=O)O)C(N)=O` (Ac-RRSQSPRRRRSQSRE-NH2), the inhibition result is “inactive”. Turning to `CC(=O)N[C@@H](CO)C(=O)N[C@@H](CS)C(=O)N[C@@H](CC(C)C)C(=O)N[C@H](C(=O)N[C@@H](Cc1ccccc1)C(=O)NCC(=O)N[C@@H](CCCNC(=N)N)C(=O)N[C@@H](CCC(=O)O)C(=O)N[C@H](C(=O)N[C@H](C(=O)N[C@@H](CC(C)C)C(=O)N[C@@H](CCC(=O)O)C(=O)N[C@@H](Cc1ccc(O)cc1)C(=O)N[C@@H](CC(C)C)C(=O)N[C@H](C(N)=O)C(C)C)C(C)C)[C@@H](C)O)[C@@H](C)O` (Ac-SCLTFGRETVLEYLV-NH2), the inhibition result was “inactive”. Under `CC(=O)N[C@H](C(=O)N[C@H](C(=O)N[C@H](C(=O)N[C@H](C(=O)N[C@@H](CCCNC(=N)N)C(=O)N[C@@H](CCCNC(=N)N)C(=O)N[C@@H](CCCNC(=N)N)C(=O)NCC(=O)N[C@@H](CCCNC(=N)N)C(=O)N[C@@H](CO)C(=O)N1CCC[C@H]1C(=O)N[C@@H](CCCNC(=N)N)C(=O)N[C@@H](CCCNC(=N)N)C(=O)N[C@@H](CCCNC(=N)N)C(=O)N[C@H](C(N)=O)[C@@H](C)O)C(C)C)C(C)C)[C@@H](C)O)[C@@H](C)O` (Ac-TTVVRRRGRSPRRRT-NH2) stands “inactive”.
